Here are results for one substance from patent US5527555A, “Brazzein sweetener” (Wisconsin Alumni Research Foundation, priority 1994, dated 1996).

Series [1] is described as follows: sweetness by tasting, compared with sucrose solution. In kind it is in vivo.
A short description of series [2]: Thermostability assay (incubation at 98° C., sweetness then tasted). Format: physicochemical. The procedure:
A thermostability assay was done (2 hours at 98° C.) at a concentration of 0.5 mg/ml Brazzein at the following different pH levels: 2 (Glycine-HCL buffer); 4 (Acetate buffer); 6 (Phosphate buffer); and 8 (Tris-HCL buffer). All of the buffers were in concentration of 50 mM. After the incubations, the samples were cooled down to room temperature and the sweetness of the samples was tasted with a comparison to the original protein solution.

Take “Brazzein: sweet protein isolated from Pentadiplandra brazzeana Baillon, about 6,473 Daltons, amino acid sequence SEQ ID NO:4 (EDKCKKVYENYPVSKCQLANQCNYDCKLDKHARSGECFYDEKRNLQCICDYCEY)”: the “sweetness relative to sucrose” value in series [1] (2% solution compared with a 2% sucrose solution) is on record as “about 2,000 times”. In series [1] (taste, duration of sweetness), the temporal sweetness response result is “relatively long lasting sweetness response”. For the same substance, the thermostability result in series [2] (2 hours at 98° C., 0.5 mg/ml, pH 2, 4, 6 and 8 (50 mM buffers), sweetness tasted against original protein solution) is on record as “excellent thermostability”. Further, the “sweetness after heat incubation” value in series [2] (two hours of incubation at 98° C.) is given as “still tasted very sweet”.
